Patent EP0344564A1, “Utilisation of special amines or hindering nitrosamine production” (Eisenbrand, Gerhard, Prof. Dr., priority 1988, dated 1989)

Assay: Nitrosamine formation in aqueous amine / sodium nitrite mixture, comparison with THEDA (Beispiel 4)
Format: physicochemical
Conditions: 20 mM Amin, 20 mM Natriumnitrit, 4 Stunden, 37 °C, pH 4

## CC(O)CN(CCN(CC(C)O)CC(C)O)CC(C)O (stereo not shown) [THEDA, N,N,N′,N′-Tetrakis(2-hydroxypropyl)ethylene-diamin]
  % gebildetes Nitrosamin bezogen auf eingesetztes Amin: 1,0%
